This experiment addresses bovine cardiac myofibrils (full-length cardiac myosin ATPase in the native sarcomere) (Bos taurus (Bovine), UniProt Q9BE39). The experiment is described as follows: Skinned bovine cardiac myofibril ATPase assay (PK/LDH-coupled). As to conditions: Ca2+ activating to 75% of maximal rate; for CDMF75 IC15: concentration giving 15% inhibition; for IC50: read-out: CDMF75 IC50. It counts as biochemical. An outline of the steps:
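Triton-skinned bovine left-ventricle myofibrils (1 mg/mL) in PM 12 buffer (12 mM PIPES, 2 mM MgCl2, pH 6.8) with 50 μM ATP, 0.6 mM EGTA and CaCl2 set for 50% or 75% activation. Steady-state ATPase inhibition followed by PK/LDH-coupled NADH oxidation at 340 nm.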

Sequence of bovine cardiac myofibrils (full-length cardiac myosin ATPase in the native sarcomere) (Q9BE39 whole entry): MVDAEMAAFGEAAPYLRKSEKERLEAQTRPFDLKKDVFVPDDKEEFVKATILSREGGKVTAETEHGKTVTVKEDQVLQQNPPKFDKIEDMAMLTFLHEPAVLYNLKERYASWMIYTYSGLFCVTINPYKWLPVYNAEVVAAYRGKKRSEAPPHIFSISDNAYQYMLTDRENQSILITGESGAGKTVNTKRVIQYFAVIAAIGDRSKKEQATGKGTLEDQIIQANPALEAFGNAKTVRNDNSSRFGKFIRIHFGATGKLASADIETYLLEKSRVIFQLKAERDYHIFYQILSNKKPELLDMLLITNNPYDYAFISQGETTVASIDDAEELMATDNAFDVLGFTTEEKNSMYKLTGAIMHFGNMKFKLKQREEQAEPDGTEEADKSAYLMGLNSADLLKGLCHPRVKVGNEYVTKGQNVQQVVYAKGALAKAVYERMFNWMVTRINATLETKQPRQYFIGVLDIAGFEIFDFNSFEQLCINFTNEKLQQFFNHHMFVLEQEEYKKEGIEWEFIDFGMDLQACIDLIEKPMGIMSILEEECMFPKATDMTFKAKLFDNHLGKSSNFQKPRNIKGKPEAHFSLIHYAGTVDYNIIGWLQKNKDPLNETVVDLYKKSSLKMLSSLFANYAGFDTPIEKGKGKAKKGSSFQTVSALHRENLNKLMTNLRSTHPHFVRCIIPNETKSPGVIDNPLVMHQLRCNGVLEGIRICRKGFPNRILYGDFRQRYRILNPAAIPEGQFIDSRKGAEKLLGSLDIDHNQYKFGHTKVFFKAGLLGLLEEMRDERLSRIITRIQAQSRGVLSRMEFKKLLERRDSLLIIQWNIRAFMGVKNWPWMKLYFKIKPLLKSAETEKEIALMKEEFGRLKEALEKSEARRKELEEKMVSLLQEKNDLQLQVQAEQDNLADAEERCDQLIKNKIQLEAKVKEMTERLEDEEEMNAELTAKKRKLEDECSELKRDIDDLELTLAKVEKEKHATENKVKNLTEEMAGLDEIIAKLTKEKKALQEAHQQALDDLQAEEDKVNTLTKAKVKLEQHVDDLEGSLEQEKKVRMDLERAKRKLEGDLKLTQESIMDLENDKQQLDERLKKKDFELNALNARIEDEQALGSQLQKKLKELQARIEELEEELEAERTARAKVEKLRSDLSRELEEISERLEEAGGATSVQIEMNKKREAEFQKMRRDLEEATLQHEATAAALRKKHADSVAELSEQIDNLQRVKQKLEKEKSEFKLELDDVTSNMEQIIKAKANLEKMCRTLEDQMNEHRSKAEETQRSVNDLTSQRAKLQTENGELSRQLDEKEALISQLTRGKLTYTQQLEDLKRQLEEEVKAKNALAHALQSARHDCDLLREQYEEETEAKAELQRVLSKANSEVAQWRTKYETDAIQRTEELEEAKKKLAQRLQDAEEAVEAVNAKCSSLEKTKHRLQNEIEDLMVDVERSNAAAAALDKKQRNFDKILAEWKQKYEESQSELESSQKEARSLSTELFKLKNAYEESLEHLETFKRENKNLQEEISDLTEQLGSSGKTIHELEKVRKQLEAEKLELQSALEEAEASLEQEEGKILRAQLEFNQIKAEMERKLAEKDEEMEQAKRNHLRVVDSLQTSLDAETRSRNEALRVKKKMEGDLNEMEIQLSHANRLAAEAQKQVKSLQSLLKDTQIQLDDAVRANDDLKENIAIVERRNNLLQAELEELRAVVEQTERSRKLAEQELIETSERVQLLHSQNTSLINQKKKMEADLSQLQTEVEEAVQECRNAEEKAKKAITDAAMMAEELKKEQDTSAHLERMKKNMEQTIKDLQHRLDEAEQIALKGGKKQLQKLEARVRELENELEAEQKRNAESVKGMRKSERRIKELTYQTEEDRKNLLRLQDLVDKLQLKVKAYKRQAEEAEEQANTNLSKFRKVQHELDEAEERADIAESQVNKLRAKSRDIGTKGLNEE
Sequence of bovine cardiac myofibrils (full-length cardiac myosin ATPase in the native sarcomere) (P85100 whole entry partner): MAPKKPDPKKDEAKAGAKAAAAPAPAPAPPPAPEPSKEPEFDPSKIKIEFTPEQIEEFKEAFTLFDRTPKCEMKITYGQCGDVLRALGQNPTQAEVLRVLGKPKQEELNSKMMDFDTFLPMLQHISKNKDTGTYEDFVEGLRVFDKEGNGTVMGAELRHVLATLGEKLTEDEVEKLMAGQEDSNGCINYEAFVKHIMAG
Sequence of bovine cardiac myofibrils (full-length cardiac myosin ATPase in the native sarcomere) (Q3SZE5 whole entry partner): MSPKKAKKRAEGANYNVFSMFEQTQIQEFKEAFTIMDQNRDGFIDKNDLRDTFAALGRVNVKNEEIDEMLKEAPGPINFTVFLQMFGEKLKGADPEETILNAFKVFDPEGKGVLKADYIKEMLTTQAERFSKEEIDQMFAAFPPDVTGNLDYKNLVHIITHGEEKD

As a reminder, the IC50 is the point on the concentration scale where inhibition reaches its midpoint. Turning to `COC(=O)N[C@@H]1CCc2cc(-c3nc(C4CC4)no3)ccc21` [Compound 350, methyl (R)-(5-(3-cyclopropyl-1,2,4-oxadiazol-5-yl)-2,3-dihydro-1H-inden-1-yl)carbamate], the “CDMF75 IC15” value worked out at 500 nM and the IC50 was found to be 2100 nM.
For `Cc1ccc(-c2ccc3c(c2)CC[C@H]3NC(=O)c2ccnn2C)cn1` [Compound 375, (R)-1-methyl-N-(5-(6-methylpyridin-3-yl)-2,3-dihydro-1H-inden-1-yl)-1H-pyrazole-5-carboxamide], in that order: 10600 nM and over 39200 nM.
In the case of `CCc1nc(-c2ccc3c(c2)CC[C@H]3NC(=O)c2cnnc(C)c2)no1` [Compound 650, (R)-N-(5-(5-ethyl-1,2,4-oxadiazol-3-yl)-2,3-dihydro-1H-inden-1-yl)-6-methylpyridazine-4-carboxamide], the “CDMF75 IC15” value turned out to be 600 nM and the IC50 amounted to 2200 nM.
For the compound `Cc1cc(-c2ccc3c(c2)OC[C@H]3NC(=O)c2ccnn2C)no1` [Compound 427, (S)-1-methyl-N-(6-(5-methylisoxazol-3-yl)-2,3-dihydrobenzofuran-3-yl)-1H-pyrazole-5-carboxamide], the “CDMF75 IC15” value turned out to be 500 nM and the IC50 turned out to be 1600 nM.
The corresponding values for `COc1cc(C(=O)N[C@@H]2CCc3cc(-c4noc(C(F)F)n4)ccc32)on1` [Compound 680, (R)-N-(5-(5-(difluoromethyl)-1,2,4-oxadiazol-3-yl)-2,3-dihydro-1H-inden-1-yl)-3-methoxyisoxazole-5-carboxamide] are 500 nM and 1700 nM.
For `COCc1nc(-c2ccc3c(c2)CC[C@H]3NC(=O)c2cnn(C)c2)no1` [Compound 178, (R)-N-(5-(5-(methoxymethyl)-1,2,4-oxadiazol-3-yl)-2,3-dihydro-1H-inden-1-yl)-1-methyl-1H-pyrazole-4-carboxamide], in that order: 1900 nM and 6800 nM.
For `O=C(N[C@@H]1CCc2cc(-c3noc(C(F)F)n3)ccc21)c1ccc(=O)n(CCO)c1` [Compound 656, (R)-N-(5-(5-(difluoromethyl)-1,2,4-oxadiazol-3-yl)-2,3-dihydro-1H-inden-1-yl)-1-(2-hydroxyethyl)-6-oxo-1,6-dihydropyridine-3-carboxamide], in that order: 1900 nM and 8100 nM.
For `CC(=O)c1nc(-c2ccc3c(c2)CC[C@H]3NC(=O)c2cnn(C)c2)no1` [Compound 545, N-[(1R)-5-(5-acetyl(1,2,4-oxadiazol-3-yl))indanyl](1-methylpyrazol-4-yl)carboxamide], the “CDMF75 IC15” value was 3200 nM and the IC50 worked out at 13100 nM.
On to `COC(=O)N[C@@H]1COc2cc(-c3noc(C4CC4)n3)ccc21` [Compound 348, methyl (S)-(6-(5-cyclopropyl-1,2,4-oxadiazol-3-yl)-2,3-dihydrobenzofuran-3-yl)carbamate], for which the “CDMF75 IC15” value stood at 500 nM and the IC50 worked out at 1800 nM.
The corresponding values for `CCc1nc(-c2ccc3c(c2)CC[C@H]3NC(=O)c2ccnc(Cl)c2)no1` [Compound 647, (R)-2-chloro-N-(5-(5-ethyl-1,2,4-oxadiazol-3-yl)-2,3-dihydro-1H-inden-1-yl)isonicotinamide] are 300 nM and 900 nM.
The corresponding values for `Cc1n[nH]cc1C(=O)N[C@@H]1CCc2cc(-c3noc(C(F)F)n3)ccc21` [Compound 71, (R)-N-(5-(5-(difluoromethyl)-1,2,4-oxadiazol-3-yl)-2,3-dihydro-1H-inden-1-yl)-3-methyl-1H-pyrazole-4-carboxamide] are 400 nM and 1200 nM.
For the compound `CC(=O)N[C@@H]1COc2cc(-c3noc(C4(C)CC4)n3)ccc21` [Compound 461, (S)-N-(6-(5-(1-methylcyclopropyl)-1,2,4-oxadiazol-3-yl)-2,3-dihydrobenzofuran-3-yl)acetamide], the “CDMF75 IC15” value is 1300 nM and the IC50 was found to be 6500 nM.
For the compound `CCc1cc(-c2ccc3c(c2)OC[C@H]3NC(=O)c2ccnn2C)no1` [Compound 421, (S)-N-(6-(5-ethylisoxazol-3-yl)-2,3-dihydrobenzofuran-3-yl)-1-methyl-1H-pyrazole-5-carboxamide], the “CDMF75 IC15” value was 300 nM and the IC50 worked out at 800 nM.
The corresponding values for `O=C(N[C@@H]1CCc2cc(-c3noc(C(F)F)n3)ccc21)C1COC1` [Compound 288, (R)-N-(5-(5-(difluoromethyl)-1,2,4-oxadiazol-3-yl)-2,3-dihydro-1H-inden-1-yl)oxetane-3-carboxamide] are 10600 nM and over 39200 nM.
The corresponding values for `CCc1nc(-c2ccc3c(c2)CCC3C(=O)Nc2ccnc(C)c2)no1` (stereo not shown) [Compound 483, 5-(5-ethyl-1,2,4-oxadiazol-3-yl)-N-(2-methylpyridin-4-yl)-2,3-dihydro-1H-indene-1-carboxamide] are 2000 nM and 6800 nM.
The corresponding values for `C[C@@H](O)c1nc(-c2ccc3c(c2)CC[C@H]3NC(=O)c2cnn(C)c2)no1` [Compound 550, N-{(1R)-5-[5-((1R)-1-hydroxyethyl)(1,2,4-oxadiazol-3-yl)]indanyl}(1-methylpyrazol-4-yl)carboxamide] are 13100 nM and 39200 nM.
`Cn1nccc1C(=O)N[C@@H]1CCc2cc(-c3ncccn3)ccc21` [Compound 366, (R)-1-methyl-N-(5-(pyrimidin-2-yl)-2,3-dihydro-1H-inden-1-yl)-1H-pyrazole-5-carboxamide]: the “CDMF75 IC15” value stood at 8600 nM and the IC50 is over 39200 nM.
The corresponding values for `CCc1nc(-c2ccc3c(c2)CC[C@H]3NC(=O)c2cnn(CC(=O)O)c2)no1` [Compound 532, (R)-2-(4-((5-(5-ethyl-1,2,4-oxadiazol-3-yl)-2,3-dihydro-1H-inden-1-yl)carbamoyl)-1H-pyrazol-1-yl)acetic acid] are 1100 nM and 5500 nM.
The corresponding values for `CCc1nc(-c2ccc3c(c2)CC[C@H]3NC(=O)c2cnn(CCOC(C)=O)c2)no1` [Compound 494, (R)-2-(4-((5-(5-ethyl-1,2,4-oxadiazol-3-yl)-2,3-dihydro-1H-inden-1-yl)carbamoyl)-1H-pyrazol-1-yl)ethyl acetate] are 2400 nM and 10000 nM.
The corresponding values for `[2H]C([2H])([2H])c1noc(-c2ccc3c(c2)CC[C@H]3NC(=O)c2cnn(C)c2)n1` [Compound 274, (R)-1-methyl-N-(5-(3-(methyl-d3)-1,2,4-oxadiazol-5-yl)-2,3-dihydro-1H-inden-1-yl)-1H-pyrazole-4-carboxamide] are 4000 nM and 15000 nM.
Regarding `COCc1nc(-c2ccc3c(c2)CC[C@H]3NC(=O)c2cccc(CO)c2)no1` [Compound 669, (R)-3-(hydroxymethyl)-N-(5-(5-(methoxymethyl)-1,2,4-oxadiazol-3-yl)-2,3-dihydro-1H-inden-1-yl)benzamide], the “CDMF75 IC15” value amounted to 500 nM and the IC50 was found to be 2300 nM.
For `Cc1csc(C(=O)NC2CCc3cc(-c4noc(C)n4)ccc32)n1` (stereo not shown) [Compound 63, 4-methyl-N-(5-(5-methyl-1,2,4-oxadiazol-3-yl)-2,3-dihydro-1H-inden-1-yl)thiazole-2-carboxamide], the “CDMF75 IC15” value was determined as 2300 nM and the IC50 is 10100 nM.
The corresponding values for `CCc1noc(-c2ccc3c(c2)CC[C@H]3NC(=O)c2cnn(C)c2)n1` [Compound 254, (R)-N-(5-(3-ethyl-1,2,4-oxadiazol-5-yl)-2,3-dihydro-1H-inden-1-yl)-1-methyl-1H-pyrazole-4-carboxamide] are 1300 nM and 4900 nM.
For `CCc1nc(-c2ccc3c(c2)CC[C@H]3NC(=O)c2nnc(C)s2)no1` [Compound 619, (R)-N-(5-(5-ethyl-1,2,4-oxadiazol-3-yl)-2,3-dihydro-1H-inden-1-yl)-5-methyl-1,3,4-thiadiazole-2-carboxamide], in that order: 600 nM and 2500 nM.
For `CCc1cc(-c2ccc3c(c2)CC[C@H]3NC(=O)c2cnc(C)o2)no1` [Compound 415, (R)-N-(5-(5-ethylisoxazol-3-yl)-2,3-dihydro-1H-inden-1-yl)-2-methyloxazole-5-carboxamide], in that order: 500 nM and 1700 nM.
On to `Cc1cc(C(=O)N[C@@H]2COc3cc(-c4noc(C)n4)ccc32)on1` [Compound 346, (S)-3-methyl-N-(6-(5-methyl-1,2,4-oxadiazol-3-yl)-2,3-dihydrobenzofuran-3-yl)isoxazole-5-carboxamide], for which the “CDMF75 IC15” value amounted to 900 nM and the IC50 worked out at 3200 nM.
`Cc1cccc(-c2ccc3c(c2)CC[C@H]3NC(=O)c2ccnn2C)c1` [Compound 373, (R)-1-methyl-N-(5-(m-tolyl)-2,3-dihydro-1H-inden-1-yl)-1H-pyrazole-5-carboxamide]: the “CDMF75 IC15” value came out at 900 nM and the IC50 amounted to 3200 nM.
For `[2H]C([2H])([2H])c1nc(-c2ccc3c(c2)CC[C@H]3NC(=O)c2c[nH]nc2C)no1` [Compound 401, (R)-3-methyl-N-(5-(5-(methyl-d3)-1,2,4-oxadiazol-3-yl)-2,3-dihydro-1H-inden-1-yl)-1H-pyrazole-4-carboxamide], in that order: 900 nM and 3000 nM.
The corresponding values for `CCc1nc(-c2ccc3c(c2)CC[C@H]3NC(=O)C2CCC(=O)N(C)C2)no1` (stereo partly drawn) [Compound 352, N-((R)-5-(5-ethyl-1,2,4-oxadiazol-3-yl)-2,3-dihydro-1H-inden-1-yl)-1-methyl-6-oxopiperidine-3-carboxamide] are 13000 nM and over 39200 nM.

Source of the values: patent US12065436B2, “Cardiac sarcomere inhibitors” (Cytokinetics, Inc., priority 2018, dated 2024).
